Laboratory results taken from patent publication US20050113315A1, “Glucopyranosyloxybenzylbenzene derivatives, medicinal compositions containing the same and intermediates in the production thereof” (KISSEI PHARMACEUTICAL CO., LTD., priority 2000, published 2005).

What was measured:
human SGLT2 = target: T1, human SGLT2 (Homo sapiens, UniProt P31639, I433V); assay: Assay for inhibitory effect on human SGLT2 activity (uptake of methyl-α-D-glucopyranoside in COS-7 cells transiently expressing human SGLT2); type: cell-based; settings: uptake of methyl-α-D-(U-14C)-glucopyranoside, 37° C., 2 hours
T1 construct: expressed in transfected cells; host or cells: COS-7 cells (RIKEN CELL BANK RCB0539), transient electroporation with KL29
T1 sequence (P31639 1-672 I433V): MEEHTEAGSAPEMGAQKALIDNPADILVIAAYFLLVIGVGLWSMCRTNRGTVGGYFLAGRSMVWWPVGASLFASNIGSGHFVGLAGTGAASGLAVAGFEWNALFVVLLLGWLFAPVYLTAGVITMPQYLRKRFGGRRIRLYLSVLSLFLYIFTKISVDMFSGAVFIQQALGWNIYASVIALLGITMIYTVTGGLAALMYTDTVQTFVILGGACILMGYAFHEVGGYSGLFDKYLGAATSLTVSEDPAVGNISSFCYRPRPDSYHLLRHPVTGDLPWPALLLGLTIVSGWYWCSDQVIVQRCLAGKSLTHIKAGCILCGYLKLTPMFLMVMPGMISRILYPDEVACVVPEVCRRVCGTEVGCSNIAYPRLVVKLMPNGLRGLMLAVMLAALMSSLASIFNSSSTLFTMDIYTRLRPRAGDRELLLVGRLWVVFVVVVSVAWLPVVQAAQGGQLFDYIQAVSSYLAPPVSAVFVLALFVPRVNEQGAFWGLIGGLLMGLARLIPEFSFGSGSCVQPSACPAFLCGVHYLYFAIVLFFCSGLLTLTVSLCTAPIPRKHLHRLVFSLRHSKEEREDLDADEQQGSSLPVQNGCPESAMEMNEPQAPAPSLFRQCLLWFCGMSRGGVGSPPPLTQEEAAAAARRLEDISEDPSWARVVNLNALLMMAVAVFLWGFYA
Protocol: Assay for Inhibitory Effect on Human SGLT2 Activity
1) Construction of the Plasmid Vector Expressing Human SGLT2
Preparation of the cDNA library for PCR amplification was performed by reverse transcription of a total RNA deprived from human kidney (Ori gene) with oligo dT as the primer, using […] Preamplification System (Gibco-BRL: LIFE TECHNOLOGIES). The DNA fragment coding for human SGLT2 was amplified by the PCR reaction, in which the human kidney cDNA library described above was used as the template and the following oligo nucleotides 0702F and 0712R, presented as Sequence Number 1 and 2 respectively, were used as the primers. The amplified DNA fragment was ligated into pCR-Blunt (Invitrogen), a vector for cloning, according to standard method of the kit. The Escherichia coli HB101 (Toyobo) was transformed according to usual method and then selection of the transformants was performed on the LB agar medium containing 50 μg/mL of kanamycin. After the plasmid DNA was extracted and purified from the one of the transformants, amplifying of the DNA fragment coding for human SGLT2 was performed by the PCR reaction, in which the following oligo nucleotides 0714F and 0715R, presented as Sequence Number 3 and 4 respectively, were used as the primers. The amplified DNA fragment was digested with restriction enzymes, Xho I and Hind III, and then purified with Wizard Purification System (Promega). This purified DNA fragment was inserted at the corresponding restriction sites of pcDNA3.1 (−) Myc/His-B (Invitrogen), a vector for expressing of fusion protein. The Escherichia coli HB101 was transformed according to usual method and then selection of the transformant was performed on the LB agar medium containing 100 μg/mL of ampicillin. After the plasmid DNA was extracted and purified from this transformant, the base sequence of the DNA fragment inserted at the multi-cloning sites of pcDNA3.1 (−) Myc/His-B was analyzed. […] Sequentially, a clone in which valine is substituted for the isoleucine-433 was obtained. This plasmid vector expressing human SGLT2 in which the peptide presented as Sequence Number 5 is fused to the carboxyl terminal alanine residue was designated KL29.
2) Preparation of the Cells Expressing Transiently Human SGLT2
KL29, the plasmid coding human SGLT2, was transfected into COS-7 cells (RIKEN CELL BANK RCB0539) by electroporation. Electroporation was performed with GENE PULSER II (Bio-Rad Laboratories) under the condition: 0.290 kV, 975 μF, 2×10^6 cells of COS-7 cell and 20 μg of KL29 in 500 μL of OPTI-MEM I medium (Gibco-BRL: LIFE TECHNOLOGIES) in the 0.4 cm type cuvette. After the gene transfer, the cells were harvested by centrifugation and resuspended with OPTI-MEM I medium (1 mL/cuvette). To each well in 96-wells plate, 125 μL of this cell suspension was added. After overnight culture at 37° C. under 5% CO2, 125 μL of DMEM medium which is containing 10% of fetal bovine serum (Sanko Jyunyaku), 100 units/mL sodium penicillin G (Gibco-BRL: LIFE TECHNOLOGIES), 100 μg/mL streptomycin sulfate (Gibco-BRL: LIFE TECHNOLOGIES) was added to each well. After a culture until the following day, these cells were used for the measurement of the inhibitory activity against the uptake of methyl-α-D-glucopyranoside.
3) Measurement of the Inhibitory Activity Against the Uptake of methyl-α-D-glucopyranoside […]

SD rats = assay: Assay for the facilitatory effect on urinary glucose excretion; type: in vivo, rat; settings: male SD rats, oral glucose 2 g/kg, urine collected 24 hours
Protocol: Assay for the Facilitatory Effect on Urinary Glucose Excretion
As experimental animals, overnight fasted SD rats (Japan SLC. Inc., male, 7 weeks of age, 180-220 g) were used. Ten mg of a test compound was suspended or dissolved in 300 μL of ethanol and dissolved by adding 1.2 mL of polyethylene glycol 400 and 1.5 mL of saline to prepare a 3.3 mg/mL solution. A portion of this solution was diluted with a mixture (saline:polyethylene glycol 400:ethanol=5:4:1) to prepare 3.3, 0.33 and 0.033 mg/mL solution. After body weights of the rats were measured, the solution of test compound was intravenously injected to the tail vein at a dose of 3 mL/kg (10, 1, 0.1 mg/kg). For control, only a mixture (saline:polyethylene glycol 400:ethanol=5:4:1) was intravenously injected to the tail vein at a dose of 3 mL/kg. Immediately after intravenous injection to the tail vein, 200 g/L of aqueous glucose solution was orally administered to the rats at a dose of 10 mL/kg (2 g/kg). The intravenous injection to the tail vein was performed with 26 G injection needle and 1 mL syringe. The oral administration was performed with gastric tube for rat and 2.5 mL syringe. The head count in each group was 3. Collection of urine was performed in metabolic cage after the administration of glucose was finished. The sampling time for collection of urine was 24 hours after the administration of glucose. After the collection of urine was finished, the urine volume was recorded and the urinary glucose concentration was measured. The glucose concentration was measured with a kit for laboratory test: Glucose B-Test WAKO (Wako Pure Chemical Industries, Ltd.). The amount of urinary glucose excretion during 24 hours per 200 g of body weight was calculated from the urine volume, urinary glucose concentration and body weight.

ICR mice = assay: Acute toxicity test; type: in vivo; settings: male ICR mice, 300 mg/kg subcutaneous, 5 animals in each group, observation for 24 hours
Protocol: A mixture (saline:polyethylene glycol 400:ethanol=5:4:1) was added to a test compound to prepare 30 mg/mL solution. As experimental animals, 5 week old male ICR mice (CLEA JAPAN, INC. 29-35 g, 5 animals in each group), which were fasted for 4 hours, were used. The above solution was subcutaneously administered at a dose of 10 mL/kg (300 mg/kg) to the above experimental animals and then observation for 24 hours was performed.

| IC50 (human SGLT2) | SMILES | Amount of Urinary Glucose Excretion (SD rats; 0.1 mg/kg intravenous) | Amount of Urinary Glucose Excretion (SD rats; 1 mg/kg intravenous) | Amount of Urinary Glucose Excretion (SD rats; 10 mg/kg intravenous) | Death number (ICR mice) |
| --- | --- | --- | --- | --- | --- |
| 120 nM | OC/C=C/c1ccc(Cc2ccccc2O[C@@H]2O[C@H](CO)[C@@H](O)[C@H](O)[C@H]2O)cc1 [Example 19, (E)-2-[4-(3-hydroxy-1-prop-1-ene-1-yl)benzyl]phenyl β-D-glucopyranoside] | – | – | – | – |
| 10 nM | CCc1ccc(Cc2ccc(N)cc2O[C@@H]2O[C@H](CO)[C@@H](O)[C@H](O)[C@H]2O)cc1 [Example 29, 5-Amino-2-(4-ethylbenzyl)phenyl β-D-glucopyranoside] | – | – | – | – |
| 30 nM | Cc1cc(C)c(Cc2ccc(CCCO)cc2)c(O[C@@H]2O[C@H](CO)[C@@H](O)[C@H](O)[C@H]2O)c1 [Example 30, 2-[4-(3-Hydroxypropyl)benzyl]-3,5-dimethylphenyl β-D-glucopyranoside] | – | – | – | – |
| 59 nM | Cc1cc(C)c(Cc2ccc(CCO)cc2)c(O[C@@H]2O[C@H](CO)[C@@H](O)[C@H](O)[C@H]2O)c1 [Example 31, 2-[4-(2-Hydroxyethyl)benzyl]-3,5-dimethylphenyl β-D-glucopyranoside] | – | – | – | – |

| SMILES | IC50 (human SGLT2) | Amount of Urinary Glucose Excretion (SD rats; 0.1 mg/kg intravenous) | Amount of Urinary Glucose Excretion (SD rats; 1 mg/kg intravenous) | Amount of Urinary Glucose Excretion (SD rats; 10 mg/kg intravenous) | Death number (ICR mice) |
| --- | --- | --- | --- | --- | --- |
| COc1ccc(Cc2c(C)cc(C)cc2O[C@@H]2O[C@H](CO)[C@@H](O)[C@H](O)[C@H]2O)cc1 [Example 37, 2-(4-Methoxybenzyl)-3,5-dimethylphenyl β-D-glucopyranoside] | 290 nM | 15 mg/24 hours/200 g body weight | 125 mg/24 hours/200 g body weight | 288 mg/24 hours/200 g body weight | 0/5 |
